Reference: patent publication US10239869B2, “Sulfonamide compounds as voltage-gated sodium channel modulators” (LUPIN LIMITED, priority 2015, dated 2019)
Where two headings read alike, the source gives them in different places.

Legend:
Nav 1.5 = Nav 1.5 (Homo sapiens (Human), UniProt Q14524); experiment: Inhibition of sodium channels, Red Membrane Potential Dye FLIPR assay, veratridine depolarization; format: cell-based; conditions: HEK-293 cells overexpressing the channel; for inhibition at 10 µM: HEK-293 cells overexpressing Nav 1.5
Nav 1.7 = Nav 1.7 (Homo sapiens (Human), UniProt Q15858); experiment: as above; format: cell-based; conditions: HEK-293 cells overexpressing the channel
[1] = read-out: Nav1.5 IC50 (bound given in μM)

Chain of Nav 1.5 (Q14524 whole entry): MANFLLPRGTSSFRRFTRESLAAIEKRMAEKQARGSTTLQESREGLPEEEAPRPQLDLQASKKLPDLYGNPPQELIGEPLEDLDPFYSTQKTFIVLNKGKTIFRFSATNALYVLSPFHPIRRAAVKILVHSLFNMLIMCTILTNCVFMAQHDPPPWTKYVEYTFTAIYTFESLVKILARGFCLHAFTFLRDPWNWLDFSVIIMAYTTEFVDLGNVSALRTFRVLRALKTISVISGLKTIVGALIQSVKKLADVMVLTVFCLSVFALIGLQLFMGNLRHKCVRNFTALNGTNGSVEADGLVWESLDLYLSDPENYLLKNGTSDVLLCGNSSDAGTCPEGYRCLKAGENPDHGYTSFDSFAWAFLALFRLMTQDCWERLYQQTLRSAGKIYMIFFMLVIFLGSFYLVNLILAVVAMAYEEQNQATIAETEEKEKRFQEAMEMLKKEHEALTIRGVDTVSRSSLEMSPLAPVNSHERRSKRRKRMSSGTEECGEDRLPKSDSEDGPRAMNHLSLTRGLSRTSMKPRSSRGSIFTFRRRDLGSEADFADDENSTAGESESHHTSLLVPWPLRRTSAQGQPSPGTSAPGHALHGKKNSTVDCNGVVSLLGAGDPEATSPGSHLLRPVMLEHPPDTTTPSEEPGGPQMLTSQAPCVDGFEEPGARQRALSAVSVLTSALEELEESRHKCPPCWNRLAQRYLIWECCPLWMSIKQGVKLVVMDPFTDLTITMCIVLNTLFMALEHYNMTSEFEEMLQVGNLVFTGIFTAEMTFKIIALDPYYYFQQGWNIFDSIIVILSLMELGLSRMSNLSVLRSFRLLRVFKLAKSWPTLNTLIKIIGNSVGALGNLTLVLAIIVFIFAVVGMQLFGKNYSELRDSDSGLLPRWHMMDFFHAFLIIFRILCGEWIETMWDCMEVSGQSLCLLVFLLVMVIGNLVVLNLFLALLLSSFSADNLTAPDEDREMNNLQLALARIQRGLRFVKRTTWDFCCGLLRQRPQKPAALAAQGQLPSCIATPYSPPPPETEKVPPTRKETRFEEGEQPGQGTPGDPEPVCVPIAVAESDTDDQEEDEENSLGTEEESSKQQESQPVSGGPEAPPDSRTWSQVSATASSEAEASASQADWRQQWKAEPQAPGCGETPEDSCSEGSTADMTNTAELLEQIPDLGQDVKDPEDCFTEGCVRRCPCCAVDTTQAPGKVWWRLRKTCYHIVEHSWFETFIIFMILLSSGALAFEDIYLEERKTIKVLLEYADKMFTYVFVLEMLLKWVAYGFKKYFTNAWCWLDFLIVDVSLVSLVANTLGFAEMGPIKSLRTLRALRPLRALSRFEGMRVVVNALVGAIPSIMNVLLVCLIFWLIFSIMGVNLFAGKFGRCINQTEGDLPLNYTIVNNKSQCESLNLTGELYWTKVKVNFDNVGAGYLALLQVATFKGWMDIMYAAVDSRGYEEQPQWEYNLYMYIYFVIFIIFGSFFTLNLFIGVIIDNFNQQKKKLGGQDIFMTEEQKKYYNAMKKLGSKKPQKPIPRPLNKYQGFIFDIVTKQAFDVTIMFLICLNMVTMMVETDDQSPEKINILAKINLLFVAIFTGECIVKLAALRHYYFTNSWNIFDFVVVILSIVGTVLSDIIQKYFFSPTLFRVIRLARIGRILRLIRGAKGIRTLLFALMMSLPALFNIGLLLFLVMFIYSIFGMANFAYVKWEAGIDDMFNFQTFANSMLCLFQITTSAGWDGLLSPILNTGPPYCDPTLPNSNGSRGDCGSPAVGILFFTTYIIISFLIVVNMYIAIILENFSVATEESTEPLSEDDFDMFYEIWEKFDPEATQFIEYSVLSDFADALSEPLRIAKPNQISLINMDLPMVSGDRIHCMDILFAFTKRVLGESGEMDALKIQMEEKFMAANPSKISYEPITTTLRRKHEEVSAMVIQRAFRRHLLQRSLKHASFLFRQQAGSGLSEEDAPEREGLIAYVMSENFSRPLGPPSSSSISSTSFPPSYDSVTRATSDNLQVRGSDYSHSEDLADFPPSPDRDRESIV
Chain of Nav 1.7 (Q15858 whole entry): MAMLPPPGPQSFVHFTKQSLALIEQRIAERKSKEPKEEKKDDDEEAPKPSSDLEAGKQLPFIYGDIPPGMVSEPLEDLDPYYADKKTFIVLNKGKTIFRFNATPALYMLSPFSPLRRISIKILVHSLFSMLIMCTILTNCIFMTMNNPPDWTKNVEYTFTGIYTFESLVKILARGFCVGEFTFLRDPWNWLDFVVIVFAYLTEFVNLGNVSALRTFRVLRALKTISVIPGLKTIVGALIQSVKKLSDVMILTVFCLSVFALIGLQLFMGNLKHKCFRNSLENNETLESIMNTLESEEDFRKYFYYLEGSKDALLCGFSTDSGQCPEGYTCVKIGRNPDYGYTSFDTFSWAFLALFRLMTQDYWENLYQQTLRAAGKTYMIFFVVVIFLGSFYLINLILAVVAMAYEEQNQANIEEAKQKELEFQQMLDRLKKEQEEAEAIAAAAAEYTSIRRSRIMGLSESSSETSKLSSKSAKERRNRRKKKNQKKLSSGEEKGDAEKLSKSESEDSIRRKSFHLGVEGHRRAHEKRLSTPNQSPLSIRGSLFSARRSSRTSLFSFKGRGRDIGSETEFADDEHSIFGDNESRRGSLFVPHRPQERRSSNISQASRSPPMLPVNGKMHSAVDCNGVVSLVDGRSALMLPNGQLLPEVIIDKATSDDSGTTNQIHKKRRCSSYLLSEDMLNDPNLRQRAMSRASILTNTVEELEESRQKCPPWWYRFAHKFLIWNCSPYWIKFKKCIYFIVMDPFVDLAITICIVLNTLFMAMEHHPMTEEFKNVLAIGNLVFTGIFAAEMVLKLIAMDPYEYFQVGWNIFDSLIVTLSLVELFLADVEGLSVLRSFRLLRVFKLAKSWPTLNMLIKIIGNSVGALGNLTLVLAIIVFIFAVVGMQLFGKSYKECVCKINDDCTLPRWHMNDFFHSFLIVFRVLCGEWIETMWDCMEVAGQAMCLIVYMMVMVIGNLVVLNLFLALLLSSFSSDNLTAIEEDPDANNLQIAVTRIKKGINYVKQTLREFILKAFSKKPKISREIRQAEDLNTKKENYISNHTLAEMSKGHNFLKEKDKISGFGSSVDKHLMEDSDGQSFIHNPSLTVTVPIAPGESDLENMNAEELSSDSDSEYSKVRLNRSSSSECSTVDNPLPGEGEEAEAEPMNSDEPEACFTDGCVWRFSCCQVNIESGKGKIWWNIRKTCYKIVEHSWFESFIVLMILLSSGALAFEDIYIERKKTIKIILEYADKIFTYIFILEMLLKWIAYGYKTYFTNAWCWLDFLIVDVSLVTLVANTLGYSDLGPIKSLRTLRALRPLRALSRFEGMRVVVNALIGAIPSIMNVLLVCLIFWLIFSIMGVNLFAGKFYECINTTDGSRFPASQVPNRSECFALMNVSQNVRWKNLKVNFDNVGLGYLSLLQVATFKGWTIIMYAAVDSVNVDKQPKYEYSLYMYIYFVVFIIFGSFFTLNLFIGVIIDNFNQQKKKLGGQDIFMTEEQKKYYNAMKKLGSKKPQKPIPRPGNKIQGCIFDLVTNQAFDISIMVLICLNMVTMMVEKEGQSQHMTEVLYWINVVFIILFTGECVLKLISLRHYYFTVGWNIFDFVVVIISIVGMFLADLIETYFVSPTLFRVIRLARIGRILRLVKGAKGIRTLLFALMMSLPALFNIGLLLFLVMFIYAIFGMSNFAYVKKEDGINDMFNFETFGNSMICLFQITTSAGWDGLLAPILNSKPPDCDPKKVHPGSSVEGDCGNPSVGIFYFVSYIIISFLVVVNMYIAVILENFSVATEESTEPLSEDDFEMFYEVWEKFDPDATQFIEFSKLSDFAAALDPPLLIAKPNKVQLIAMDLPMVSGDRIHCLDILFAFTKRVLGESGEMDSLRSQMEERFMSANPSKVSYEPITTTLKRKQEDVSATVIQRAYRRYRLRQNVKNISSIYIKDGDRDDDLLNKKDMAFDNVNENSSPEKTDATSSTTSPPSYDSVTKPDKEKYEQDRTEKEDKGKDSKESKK

SMILES	IC50 (Nav 1.5; [1]) [µM]	IC50 (Nav 1.7; read-out: Nav1.7 IC50) [µM]	also measured
CCCc1cc(C(F)(F)F)ccc1[C@@H]1CCOc2cc(S(=O)(=O)Nc3ncc(F)cn3)ccc21 [Example-240, (S&R)—N-(5-fluoropyrimidin-2-yl)-4-(2-propyl-4-(trifluoromethyl)phenyl)chroman-7-sulfonamide]	> 10	2.74	–
Cc1cccc(NS(=O)(=O)c2ccc3c(c2)OCC[C@H]3c2ccc(C(F)(F)F)cc2-c2ccnn2C)n1 [Example 19, (S&R)-4-(2-(1-methyl-1H-pyrazol-5-yl)-4-(trifluoromethyl)phenyl)-N-(6-methylpyridin-2-yl)chroman-7-sulfonamide]	> 10	1.01	–
CCCc1cc(C(F)(F)F)ccc1[C@H]1CCOc2cc(S(=O)(=O)Nc3ncc(F)cn3)ccc21 [Example-241, (S&R)—N-(5-fluoropyrimidin-2-yl)-4-(2-propyl-4-(trifluoromethyl)phenyl)chroman-7-sulfonamide]	> 10	0.172	–
Cc1nc(-c2cc(C(F)(F)F)ccc2[C@@H]2CCOc3cc(S(=O)(=O)Nc4ccncn4)ccc32)cs1 [Example 67, (S&R)-4-(2-(2-Methylthiazol-4-yl)-4-(trifluoromethyl)phenyl)-N-(pyrimidin-4-yl)chroman-7-sulfonamide]	> 10	0.03	–
O=S(=O)(Nc1ncc(F)cn1)c1ccc2c(c1)OCC[C@H]2c1ccc(C(F)(F)F)cc1OC1CCOCC1 [Example-170, (R&S)—N-(5-fluoropyrimidin-2-yl)-4-(2-((tetrahydro-2H-pyran-4-yl)oxy)-4-(trifluoromethyl)phenyl)chroman-7-sulfonamide]	> 10	1.09	–
Cn1nccc1-c1cc(C(F)(F)F)ccc1[C@@H]1CCOc2cc(S(=O)(=O)Nc3cccnc3F)ccc21 [Example 27, (S&R)—N-(2-fluoropyridin-3-yl)-4-(2-(1-methyl-1H-pyrazol-5-yl)-4-(trifluoromethyl)phenyl)chroman-7-sulfonamide]	> 10	–	Nav1.7 inhibition @ 10 μM (Nav 1.7): 80%
O=S(=O)(Nc1cccnn1)c1ccc2c(c1)OCC[C@H]2c1ccc(C(F)(F)F)cc1-c1ccc(F)cn1 [Example-199, (S&R)-4-(2-(5-fluoropyridin-2-yl)-4-(trifluoromethyl)phenyl)-N-(pyridazin-3-yl)chroman-7-sulfonamide]	> 10	0.355	–
Cc1nc(-c2cc(C(F)(F)F)ccc2[C@H]2CCOc3cc(S(=O)(=O)Nc4ncccn4)ccc32)ccc1F (racemic) [Example-222, (R/S)-4-(2-(5-fluoro-6-methylpyridin-2-yl)-4-(trifluoromethyl)phenyl)-N-(pyrimidin-2-yl)chroman-7-sulfonamide]	–	0.063	inhibition at 10 µM (Nav 1.5): 73%
CC(C)Oc1ccc(-c2cc(C(F)(F)F)ccc2[C@H]2CCOc3cc(S(=O)(=O)Nc4ncc(F)cn4)ccc32)cn1 [Example 100, (S&R)—N-(5-fluoropyrimidin-2-yl)-4-(2-(6-isopropoxypyridin-3-yl)-4-(trifluoromethyl)phenyl)chroman-7-sulfonamide]	> 10	0.075	–
O=S(=O)(Nc1cccc(F)n1)c1ccc2c(c1)OCC[C@@H]2c1ccc(C(F)(F)F)cc1OC1CCOCC1 [Example-177, (R&S)—N-(6-fluoropyridin-2-yl)-4-(2-((tetrahydro-2H-pyran-4-yl)oxy)-4-(trifluoromethyl)phenyl)chroman-7-sulfonamide]	–	0.011	IC50 (Nav 1.5; read-out: Nav1.5 IC50): 0.232 µM
O=S(=O)(Nc1ncc(F)cn1)c1ccc2c(c1)OCC[C@@H]2c1ccc(C(F)(F)F)cc1OC1CCOCC1 [Example-171, (R&S)—N-(5-fluoropyrimidin-2-yl)-4-(2-((tetrahydro-2H-pyran-4-yl)oxy)-4-(trifluoromethyl)phenyl)chroman-7-sulfonamide]	–	0.125	Nav1.5 % inhibition @ 10 μM (Nav 1.5): 53%
O=S(=O)(Nc1cccnn1)c1ccc2c(c1)OCC[C@@H]2c1ccc(C(F)(F)F)cc1-c1nccs1 (racemic) [Example 95, (R/S)—N-(pyridazin-3-yl)-4-(2-(thiazol-2-yl)-4-(trifluoromethyl)phenyl)chroman-7-sulfonamide]	–	0.011	inhibition at 10 µM (Nav 1.5): 74%
COc1cc(C(F)(F)F)ccc1[C@@H]1CCOc2cc(S(=O)(=O)Nc3ncccn3)ccc21 [Example-226, (S&R)-4-(2-methoxy-4-(trifluoromethyl)phenyl)-N-(pyrimidin-2-yl)chroman-7-sulfonamide]	–	2.35	Nav1.5 % inhibition @ 10 μM (Nav 1.5): 86%
O=S(=O)(Nc1ncc(F)cn1)c1ccc2c(c1)OCC[C@@H]2c1ccc(C(F)(F)F)cc1CCF (racemic) [Example 154, (R/S)-4-(2-(2-fluoroethyl)-4-(trifluoromethyl)phenyl)-N-(5-fluoropyrimidin-2-yl)chroman-7-sulfonamide]	> 10	0.083	–
COCCCCc1cc(C(F)(F)F)ccc1[C@H]1CCOc2cc(S(=O)(=O)Nc3cccnn3)ccc21 (racemic) [Example 150, (R/S)-4-(2-(4-methoxybutyl)-4-(trifluoromethyl)phenyl)-N-(pyridazin-3-yl)chroman-7-sulfonamide]	–	0.031	IC50 (Nav 1.5; read-out: Nav1.5 IC50): 1.43 µM
Cc1ccc(-c2cc(C(F)(F)F)ccc2[C@H]2CCOc3cc(S(=O)(=O)Nc4cccnn4)ccc32)cn1 (stereo in doubt) [Example-205, (R/S)-4-(2-(6-methylpyridin-3-yl)-4-(trifluoromethyl)phenyl)-N-(pyridazin-3-yl)chroman-7-sulfonamide]	–	0.008	IC50 (Nav 1.5; read-out: Nav1.5 IC50): 0.25 µM
O=S(=O)(Nc1cccc(F)n1)c1ccc2c(c1)OCC[C@H]2c1ccc(C(F)(F)F)cc1-n1cccn1 [Example 89, (S&R)-4-(2-(1H-pyrazol-1-yl)-4-(trifluoromethyl)phenyl)-N-(6-fluoropyridin-2-yl)chroman-7-sulfonamide]	> 10	0.108	–
CC(C)Oc1ccc(-c2cc(C(F)(F)F)ccc2[C@H]2CCOc3cc(S(=O)(=O)Nc4ncccn4)ccc32)cn1 [Example 98, (S&R)-4-(2-(6-isopropoxypyridin-3-yl)-4-(trifluoromethyl)phenyl)-N-(pyrimidin-2-yl)chroman-7-sulfonamide]	–	0.011	IC50 (Nav 1.5; read-out: Nav1.5 IC50): 0.432 µM
COCCCCc1cc(C(F)(F)F)ccc1[C@H]1CCOc2cc(S(=O)(=O)Nc3ncccn3)ccc21 [Example 147, (S&R)-4-(2-(4-methoxybutyl)-4-(trifluoromethyl)phenyl)-N-(pyrimidin-2-yl)chroman-7-sulfonamide]	–	0.199	Nav1.5 % inhibition @ 10 μM (Nav 1.5): 60%
CCOc1ccc(-c2cc(C(F)(F)F)ccc2[C@H]2CCOc3cc(S(=O)(=O)Nc4ncccn4)ccc32)cn1 (racemic) [Example 103, (R/S)-4-(2-(6-ethoxypyridin-3-yl)-4-(trifluoromethyl)phenyl)-N-(pyrimidin-2-yl)chroman-7-sulfonamide]	–	0.01	IC50 (Nav 1.5; read-out: Nav1.5 IC50): 0.932 µM
CS(=O)(=O)CCc1cc(C(F)(F)F)ccc1[C@@H]1CCOc2cc(S(=O)(=O)Nc3cccc(F)n3)ccc21 [Example 81, (S&R)—N-(6-Fluoropyridin-2-yl)-4-(2-(2-(methylsulfonyl)ethyl)-4-(trifluoromethyl)phenyl)chroman-7-sulfonamide]	–	0.993	Nav1.5 % inhibition @ 10 μM (Nav 1.5): 34%
O=C1OCCN1c1cc(C(F)(F)F)ccc1[C@H]1CCOc2cc(S(=O)(=O)Nc3cccc(F)n3)ccc21 (racemic) [Example-210, (R/S)—N-(6-fluoropyridin-2-yl)-4-(2-(2-oxooxazolidin-3-yl)-4-(trifluoromethyl)phenyl)chromane-7-sulfonamide]	> 10	0.048	–
O=S(=O)(Nc1cccc(F)n1)c1ccc2c(c1)OCC[C@@H]2c1ccc(C(F)(F)F)cc1-c1nccs1 (racemic) [Example 96, (R/S)—N-(6-fluoropyridin-2-yl)-4-(2-(thiazol-2-yl)-4-(trifluoromethyl)phenyl)chroman-7-sulfonamide]	–	0.008	inhibition at 10 µM (Nav 1.5): 70%
O=C1OCCN1c1cc(C(F)(F)F)ccc1[C@H]1CCOc2cc(S(=O)(=O)Nc3ncc(F)cn3)ccc21 (racemic) [Example-208, (R/S)—N-(5-fluoropyrimidin-2-yl)-4-(2-(2-oxooxazolidin-3-yl)-4-(trifluoromethyl)phenyl)chroman-7-sulfonamide]	> 10	0.046	–
O=S(=O)(Nc1ccncn1)c1ccc2c(c1)OCC[C@@H]2c1ccc(C(F)(F)F)cc1CCCF (racemic) [Example 160, (R/S)-4-(2-(3-fluoropropyl)-4-(trifluoromethyl)phenyl)-N-(pyrimidin-4-yl)chroman-7-sulfonamide]	–	0.0007	inhibition at 10 µM (Nav 1.5): 61%
CCCc1cc(C(F)(F)F)ccc1[C@H]1CCOc2cc(S(=O)(=O)Nc3ncccn3)ccc21 [Example-239, (S&R)-4-(2-propyl-4-(trifluoromethyl)phenyl)-N-(pyrimidin-2-yl)chroman-7-sulfonamide]	–	0.124	Nav1.5 % inhibition @ 10 μM (Nav 1.5): 62%
COc1cc(C(F)(F)F)ccc1[C@@H]1CCOc2cc(S(=O)(=O)Nc3cccc(F)n3)ccc21 [Example-228, (S&R)—N-(6-fluoropyridin-2-yl)-4-(2-methoxy-4-(trifluoromethyl)phenyl)chroman-7-sulfonamide]	> 10	–	Nav1.7 inhibition @ 10 μM (Nav 1.7): 55%
O=C1OCCN1c1cc(C(F)(F)F)ccc1[C@H]1CCOc2cc(S(=O)(=O)Nc3cccnn3)ccc21 (racemic) [Example-209, (R/S)-4-(2-(2-oxooxazolidin-3-yl)-4-(trifluoromethyl)phenyl)-N-(pyridazin-3-yl)chroman-7-sulfonamide]	–	0.047	inhibition at 10 µM (Nav 1.5): 28%
O=S(=O)(Nc1ncccn1)c1ccc2c(c1)OCC[C@H]2c1ccc(C(F)(F)F)cc1OCCCF [Example-220, (S&R)-4-(2-(3-fluoropropoxy)-4-(trifluoromethyl)phenyl)-N-(pyrimidin-2-yl)chroman-7-sulfonamide]	> 10	–	IC50 (Nav 1.7; read-out: Nav1.7 IC50 (bound given in μM)): > 10 µM
